Measured values published in patent publication US20060235076A1, “Medicinal composition for treating infection with drug-resistant staphylococcus aureus” (priority 2003, published 2006).
Values after ≈ are worked out from the molar mass of the structure shown. Like-named read-outs stand apart in the source and are kept apart here.

Columns and labels:
Type in all cases: cell-based, Staphylococcus aureus
MRSA and MSSA [1] = experiment: Enhancing activity for the antibacterial activity of oxacillin by various gallates (agar plate dilution method, oxacillin MIC); conditions: for MIC: Staphylococcus aureus, oxacillin alone
Method: According to the agar plate dilution method defined by Japan Society of Chemotherapy, MIC (Minimum inhibitory concentration) was determined. CAMHA was prepared by adding 50 mg/l of Ca-ion, 25 mg/l of Mg-ion, and 2% of NaCl to Mueller-Hinton II Agar (MHA), and it was used as a medium for use in the measurement of sensitivity. The bacterial liquid was incubated at 37° C. overnight and diluted to 10^6 CFU/ml with saline.

MRSA = experiment: Potentiating effect of galloyl quinic acid derivatives for the antibacterial activity of oxacillin (agar plate dilution method, MIC); conditions: Staphylococcus aureus, read-out: Oxacillin MIC
Summary of the method: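 MIC by agar plate dilution (Japan Society of Chemotherapy) on Mueller-Hinton II agar with 50 mg/l Ca, 25 mg/l Mg and 2% NaCl, inoculum diluted to 10^6 CFU/ml; tara-derived galloyl quinic acids tested combined with oxacillin.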

MRSA and MSSA [2] = experiment: Antibacterial activity of gallic acid, various gallates and multivalent phenol derivatives alone (agar plate dilution method, MIC); conditions: for MIC: read-out: MIC alone
Summary of the method: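 Each compound tested alone. Bacteria cultured overnight at 37 °C, then brought to 10^6 CFU/ml in saline and tested on MHA II with added Ca-ion (50 mg/l), Mg-ion (25 mg/l) and 2% NaCl. MIC read by the Japan Society of Chemotherapy agar dilution method.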

[3] = tested on: MRSA COL and MRSA Strain No. 5; experiment: Potentiating effect of various gallates for antibacterial activity of oxacillin (MIC by broth microdilution method and FIC); conditions: combination with oxacillin
Summary of the method: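 Broth microdilution MIC per Japan Society of Chemotherapy method in cation-adjusted Mueller-Hinton broth (50 mg/l Ca, 25 mg/l Mg, 2% NaCl); inoculum 5×10^5 CFU/well from overnight 37° C culture. Gallate–oxacillin combinations evaluated by FIC.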

Structure (SMILES): Cc1onc(-c2ccccc2)c1C(=O)N[C@@H]1C(=O)N2[C@@H]1SC(C)(C)[C@@H]2C(=O)O [Oxacillin, oxacillin]
- MIC (MRSA and MSSA [1]; ATCC 6538 / MRSA / MSSA, ATCC 6538): 0.063 µg/mL
- MIC (MRSA and MSSA [1]; MRSA 1): > 256 µg/mL
- MIC (MRSA and MSSA [1]; MRSA 2): 256 µg/mL
- MIC (MRSA and MSSA [1]; MRSA 3): 128 µg/mL
- MIC (MRSA and MSSA [1]; MRSA 4): 256 µg/mL
- MIC (MRSA and MSSA [1]; MRSA 5): 256 µg/mL
- MIC (MRSA and MSSA [1]; MRSA 6): > 256 µg/mL
- MIC (MRSA and MSSA [1]; MRSA 7): > 256 µg/mL
- MIC (MRSA and MSSA [1]; MRSA 8): 128 µg/mL
- MIC (MRSA and MSSA [1]; MRSA 9): 256 µg/mL
- MIC (MRSA and MSSA [1]; MRSA 10): 128 µg/mL
- MIC (MRSA and MSSA [1]; MRSA 12): > 256 µg/mL
- MIC (MRSA and MSSA [1]; MRSA 16): 256 µg/mL
- MIC (MRSA and MSSA [1]; MRSA 17): 256 µg/mL
- MIC (MRSA and MSSA [1]; MRSA 18): > 256 µg/mL
- MIC (MRSA and MSSA [1]; MRSA 20): 64 µg/mL
- MIC (MRSA and MSSA [1]; MRSA 21): 64 µg/mL
- MIC (MRSA and MSSA [1]; MRSA 22): 32 µg/mL
- MIC (MRSA and MSSA [1]; MRSA 24): < 0.5 µg/mL
- MIC (MRSA and MSSA [1]; MRSA COL): 256 µg/mL
- MIC (MRSA and MSSA [1]; MSSA 1003): 0.25 µg/mL
- MIC (MRSA and MSSA [1]; MSSA 1010): 0.25 µg/mL
- MIC (MRSA and MSSA [1]; MSSA 1020): 1 µg/mL
- MIC (MRSA and MSSA [1]; MSSA 1023): 2 µg/mL
- MIC (MRSA and MSSA [1]; MSSA 1029): 4 µg/mL
- MIC (MRSA and MSSA [1]; MSSA 1032): 0.13 µg/mL
- MIC (MRSA; ATCC 6538 / MRSA, ATCC 6538, oxacillin alone (—)): 0.063 µg/mL
- MIC (MRSA; MRSA / MSSA, MSSA 1003, oxacillin alone (—)): 0.25 µg/mL
- MIC (MRSA; MRSA / MSSA, MSSA 1010, oxacillin alone (—)): 0.25 µg/mL
- MIC (MRSA; MRSA / MSSA, MSSA 1032, oxacillin alone (—)): 0.13 µg/mL
- MIC (MRSA; MRSA, MRSA 1, oxacillin alone (—)): > 256 µg/mL
- MIC (MRSA; MRSA, MRSA 2, oxacillin alone (—)): 256 µg/mL
- MIC (MRSA; MRSA, MRSA 3, oxacillin alone (—)): 128 µg/mL
- MIC (MRSA; MRSA, MRSA 4, oxacillin alone (—)): 256 µg/mL
- MIC (MRSA; MRSA, MRSA 5, oxacillin alone (—)): 256 µg/mL
- MIC (MRSA; MRSA, MRSA 6, oxacillin alone (—)): > 256 µg/mL
- MIC (MRSA; MRSA, MRSA 7, oxacillin alone (—)): > 256 µg/mL
- MIC (MRSA; MRSA, MRSA 8, oxacillin alone (—)): 128 µg/mL
- MIC (MRSA; MRSA, MRSA 9, oxacillin alone (—)): 256 µg/mL
- MIC (MRSA; MRSA, MRSA 10, oxacillin alone (—)): 128 µg/mL
- MIC (MRSA; MRSA, MRSA 12, oxacillin alone (—)): > 256 µg/mL
- MIC (MRSA; MRSA, MRSA 16, oxacillin alone (—)): 256 µg/mL
- MIC (MRSA; MRSA, MRSA 17, oxacillin alone (—)): 256 µg/mL
- MIC (MRSA; MRSA, MRSA 18, oxacillin alone (—)): > 256 µg/mL
- MIC (MRSA; MRSA, MRSA 20, oxacillin alone (—)): 64 µg/mL
- MIC (MRSA; MRSA, MRSA 21, oxacillin alone (—)): 64 µg/mL
- MIC (MRSA; MRSA, MRSA 22, oxacillin alone (—)): 32 µg/mL
- MIC (MRSA; MRSA, MRSA COL, oxacillin alone (—)): 256 µg/mL
- MIC (MRSA; MRSA): 0.13 µg/mL

Structure (SMILES): CCCCCOC(=O)c1cc(O)c(O)c(O)c1 [Pentyl gallate, n-pentyl gallate]
- MIC alone (MRSA and MSSA [2]; MRSA #2): 62.5 µg/mL (≈ 260 µM)
- MIC50 (MRSA and MSSA [2]; Staphylococcus aureus): 62.5 µg/mL (≈ 260 µM)
- MIC (MRSA and MSSA [2]; Staphylococcus aureus, ATCC 6538 / MRSA / MSSA): 62.5 µg/mL (≈ 260 µM)
- MIC (MRSA and MSSA [2]; Staphylococcus aureus, COL): 62.5 µg/mL (≈ 260 µM)
- MIC (MRSA and MSSA [2]; Staphylococcus aureus, MRSA #1): 62.5 µg/mL (≈ 260 µM)
- MIC (MRSA and MSSA [2]; Staphylococcus aureus, MRSA #2): 67.5 µg/mL (≈ 281 µM)
- MIC (MRSA and MSSA [2]; Staphylococcus aureus, MRSA #3): 62.5 µg/mL (≈ 260 µM)
- MIC (MRSA and MSSA [2]; Staphylococcus aureus, MRSA #4): 62.5 µg/mL (≈ 260 µM)
- MIC (MRSA and MSSA [2]; Staphylococcus aureus, MRSA #5): 62.5 µg/mL (≈ 260 µM)
- MIC (MRSA and MSSA [2]; Staphylococcus aureus, MRSA #6): 62.5 µg/mL (≈ 260 µM)
- MIC (MRSA and MSSA [2]; Staphylococcus aureus, MRSA #7): 62.5 µg/mL (≈ 260 µM)
- MIC (MRSA and MSSA [2]; Staphylococcus aureus, MRSA #8): 62.5 µg/mL (≈ 260 µM)
- MIC (MRSA and MSSA [2]; Staphylococcus aureus, MRSA #9): 62.5 µg/mL (≈ 260 µM)
- MIC (MRSA and MSSA [2]; Staphylococcus aureus, MRSA #10): 62.5 µg/mL (≈ 260 µM)
- MIC (MRSA and MSSA [2]; Staphylococcus aureus, MRSA #12): 62.5 µg/mL (≈ 260 µM)
- MIC (MRSA and MSSA [2]; Staphylococcus aureus, MRSA #16): 62.5 µg/mL (≈ 260 µM)
- MIC (MRSA and MSSA [2]; Staphylococcus aureus, MRSA #17): 62.5 µg/mL (≈ 260 µM)
- MIC (MRSA and MSSA [2]; Staphylococcus aureus, MRSA #18): 62.5 µg/mL (≈ 260 µM)
- MIC (MRSA and MSSA [2]; Staphylococcus aureus, MRSA #20): 62.5 µg/mL (≈ 260 µM)
- MIC (MRSA and MSSA [2]; Staphylococcus aureus, MRSA #21): 62.5 µg/mL (≈ 260 µM)
- MIC (MRSA and MSSA [2]; Staphylococcus aureus, MRSA #22): 62.5 µg/mL (≈ 260 µM)
- MIC (MRSA and MSSA [2]; Staphylococcus aureus, MRSA #24): 62.5 µg/mL (≈ 260 µM)
- MIC (MRSA and MSSA [2]; Staphylococcus aureus, MSSA #1003): 62.5 µg/mL (≈ 260 µM)
- MIC (MRSA and MSSA [2]; Staphylococcus aureus, MSSA #1010): 62.5 µg/mL (≈ 260 µM)
- MIC (MRSA and MSSA [2]; Staphylococcus aureus, MSSA #1020): 62.5 µg/mL (≈ 260 µM)
- MIC (MRSA and MSSA [2]; Staphylococcus aureus, MSSA #1023): 62.5 µg/mL (≈ 260 µM)
- MIC (MRSA and MSSA [2]; Staphylococcus aureus, MSSA #1029): 62.5 µg/mL (≈ 260 µM)
- MIC (MRSA and MSSA [2]; Staphylococcus aureus, MSSA #1032): 62.5 µg/mL (≈ 260 µM)
- effect of combination use with oxacillin (words) (MRSA and MSSA [1]; MRSA and MSSA): excellent potentiating effect
- FIC value ([3]; MRSA COL): 0.375
- FIC value ([3]; MRSA Strain No. 5): 0.563
